Results: PubChem BioAssay (NCI)
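Compound exposure: 48 hours, 5 concentrations, 96-well plates. GI50 marks 50% less growth. At the TGI there is no net growth.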

Experiments:
Experiment in all cases: NCI-60 cell line screen, 48 h
[1] = tested on: COLO 205 colon
[2] = tested on: SNB-75 CNS
[3] = tested on: LOX IMVI melanoma
[4] = tested on: M14 melanoma
[5] = tested on: SF-539 CNS
[6] = tested on: PC-3 prostate
[7] = tested on: NCI-H226 lung
[8] = tested on: OVCAR-8 ovarian
[9] = tested on: TK-10 renal
[10] = tested on: SF-268 CNS

SMILES | TGI [1] | TGI [2] | TGI [3] | TGI [4] | TGI [5] | TGI [6] | TGI [7] [µM] | TGI [8] | TGI [9] | TGI [10] | GI50 [1] | GI50 [2] | GI50 [3] | GI50 [4] | GI50 [5] | GI50 [6] | GI50 [8] | GI50 [9] | GI50 [10]
Nc1nc(N)c2c(n1)NC(c1ccccc1)CC(/C=C/c1ccc(Cl)cc1)=N2 (configuration not stated) | 7.5 µM | 33.9 µM | 13.4 µM | 28.3 µM | 31.2 µM | 22 µM | 27.7 | 37.2 µM | 8.64 µM | 44.1 µM |  |  |  |  |  |  |  |  | 
CN(CCCNC(=O)c1cn(C)c2c1ccc1cc(Cl)c(Cl)cc12)CCCNC(=O)c1cn(C)c2c1ccc1cc(Cl)c(Cl)cc12 | 9.58 µM | 25.6 µM | > 43.3 µM | 27.5 µM | 32.1 µM | 27.4 µM | 47.9 | 31.2 µM | 37.4 µM | 34 µM |  |  |  |  |  |  |  |  | 
CC(Sc1ccccc1)C(CO)(CO)[N+](=O)[O-] (configuration not stated) |  | 35.4 µM | 28.2 µM | 32.9 µM | 31 µM |  | 33 | 28.7 µM | 33.7 µM | 46.5 µM |  |  |  |  |  |  |  |  | 
O=S(=O)(/N=C(\NO)Nc1ccc(Cl)cc1)c1ccc(S(=O)(=O)c2ccccc2)s1 | 34.6 µM |  | 29.3 µM | 37.4 µM | 63.7 µM | > 100 µM | 52.1 | 89.6 µM | 66.3 µM | 90.7 µM |  |  |  |  |  |  |  |  | 
CN(C)CCn1c(=O)c2ccc3c4c(nn3CCN(C)C)c3cc(N)ccc3n(c1=O)c24 | 0.199 µM | 0.0971 µM | 0.127 µM | 0.18 µM | 0.579 µM | 0.114 µM | 0.759 | 0.454 µM | 3.8 µM | 0.221 µM |  |  |  |  |  |  |  |  | 
N[C@H]1CCN(c2c(F)cc3c(=O)c(C(=O)O)cn4c3c2Oc2cc3c(ccc5ccccc53)cc2-4)C1 | 9.28 µM |  | > 100 µM | > 100 µM | 10.6 µM | 6.34 µM | 58.5 | > 100 µM | > 100 µM |  |  |  |  |  |  |  |  |  | 
O=CN1CCN(C(=O)c2cc(Cl)cc(Cl)c2)C1=S | 33.8 µM | 27 µM | 22.3 µM | 29.2 µM | 39.7 µM | 35.8 µM | 32.7 | 33.6 µM | 28.7 µM | 30.6 µM |  |  |  |  |  |  |  |  | 
O=[N+]([O-])c1ccc2c(c1)c(N=NC(=S)NC1CCCCC1)c(O)n2CN1CCOCC1 | 23.4 µM | 24.2 µM | 19.3 µM | 21.8 µM | 25.4 µM | 19 µM | 66 | 17.4 µM | 19.4 µM | 19.2 µM |  |  |  |  |  |  |  |  | 
C/C(=N\NC(=O)c1cccnc1)c1cccc(/C(C)=N/NC(=O)c2cccnc2)n1 | > 100 µM | 42.5 µM | > 100 µM | 13.6 µM | 13.6 µM |  |  | 19.3 µM | > 100 µM | 30.6 µM | 4.15 µM | 10.3 µM |  |  |  |  |  |  | 
CS(=O)(=O)c1nc(-c2cc3c(c(S(C)(=O)=O)n2)CCCC3)cc2c1CCCC2 | > 100 µM | 25.3 µM | > 100 µM | > 100 µM | > 100 µM | > 100 µM | > 100 | > 69.5 µM | > 100 µM | > 47.3 µM |  |  |  |  |  |  |  |  | 
CC(=O)N(C)c1ccc2c(ccc[n+]2[O-])c1[N+](=O)[O-] | > 100 µM | > 100 µM | > 100 µM | > 100 µM | > 100 µM |  | > 100 | > 100 µM | > 100 µM | > 100 µM |  |  |  |  |  |  |  |  | 
COc1ccc(N=c2ssc(C(=S)Nc3ccc(OC)cc3)c2S)cc1 | > 100 µM | > 100 µM | > 100 µM | > 100 µM | > 100 µM | > 100 µM | > 100 | > 100 µM | > 100 µM | > 100 µM |  |  |  |  |  |  |  |  | 
CCC(C)C1NC(=O)C2CCCN2C(=O)C(CC2CO2)OC(=O)CCNC(=O)C(C)N(C)C(=O)C(C(C)C)N(C)C1=O (configuration not stated) | 47.3 µM |  | 0.118 µM | 0.0179 µM | > 100 µM | > 100 µM | > 17.1 | > 100 µM | > 100 µM | > 100 µM |  |  |  |  |  |  |  |  | 
C[C@]12CC[C@@H]3c4ccccc4CC[C@H]3[C@@H]1CC[C@@H]2O | > 100 µM | > 100 µM | > 100 µM | > 100 µM | > 100 µM |  |  | > 100 µM | > 100 µM | > 100 µM |  |  |  |  |  |  |  |  | 
CN1C2CCC1C(C(O)c1ccccc1[N+](=O)[O-])C(=O)C2 (configuration not stated) | > 100 µM |  | > 100 µM | > 100 µM | 80.4 µM | > 100 µM | 73.3 | > 100 µM | > 100 µM | > 100 µM |  |  |  |  |  |  |  |  | 
Nc1ccc2c(c1)C(=O)N(O)C2=O |  | > 100 µM | > 100 µM | > 100 µM | > 100 µM |  | > 100 |  | > 100 µM | > 100 µM |  |  |  |  |  |  |  |  | 
NCCNc1nc(N2CCCC2)c2nc(Cl)c(NCc3ccccc3)nc2n1 | 3.29 µM | 3.49 µM | 3.06 µM | 3.16 µM | 3.79 µM | 7.62 µM | 15.7 |  | 3.25 µM | 3.81 µM |  |  |  |  |  |  |  |  | 
OCCOCn1cc(Cn2ncc3c(SCc4ccccc4)ncnc32)nn1 | > 100 µM | > 100 µM | > 100 µM | > 100 µM | > 100 µM | > 100 µM | > 100 | > 100 µM | > 100 µM | > 100 µM |  |  |  |  |  |  |  |  | 
COC(=O)C1C(C)N1C (configuration not stated) | > 100 µM | > 100 µM | > 100 µM | > 100 µM | > 100 µM |  | > 100 | > 100 µM | > 100 µM |  |  |  |  |  |  |  |  |  | 
Clc1ccc(Nc2nc(Cl)c3[nH]cnc3n2)cc1Cl | 37.9 µM | 52.3 µM | 34.1 µM | > 100 µM |  | 66.2 µM | > 100 | > 100 µM | > 100 µM | 91.3 µM |  |  |  |  |  |  |  |  | 
COc1ccc(/C=C(\C#N)c2nc(N)nc(N3N=C(C)CC3(C)C)n2)c(O)c1 | 30.9 µM |  |  | 35.6 µM | 29.1 µM | > 100 µM | 35.9 | > 100 µM | 77.7 µM | 38.3 µM |  |  |  |  |  |  |  |  | 
COc1c2c(cc3c1C(O)N1CC[C@]34[C@H]3O[C@H]3[C@H](OC)C[C@@H]14)OCO2 (some centres not stated) | > 100 µM | > 100 µM | > 100 µM | > 100 µM | > 100 µM | > 100 µM | > 100 | > 100 µM | > 100 µM | > 100 µM |  |  |  |  |  |  |  |  | 
C[C@]12CCC(=O)C=C1CC[C@@H]1[C@@H]2[C@@H](O)C[C@@]2(C)[C@H]1CC[C@]2(O)C(=O)CO | > 100 µM | > 100 µM | > 100 µM | > 100 µM | > 100 µM | > 100 µM | > 100 | > 100 µM | > 100 µM | > 100 µM |  |  |  |  |  |  |  |  | 
O=S(=O)(O)c1cccc2c(N=Nc3c(O)ccc4ccccc34)cccc12 | > 100 µM | > 100 µM | > 100 µM | > 100 µM |  | > 100 µM | > 100 | > 100 µM | > 100 µM | > 100 µM |  |  |  |  |  |  |  |  | 
[O-][N+](CCO)(CCO)c1ncnc2nc[nH]c12 | > 100 µM | > 100 µM | > 100 µM | > 100 µM |  | > 100 µM | > 100 | > 100 µM | > 100 µM | > 100 µM |  |  |  |  |  |  |  |  | 
Nc1ccccc1N/C(=C\C(=O)C(Cl)(Cl)Cl)c1ccccc1 | 98.1 µM | > 100 µM | 35.6 µM | 42.2 µM | 36.1 µM | 68.8 µM | > 100 | > 100 µM | > 100 µM | 70.4 µM |  |  |  |  |  |  |  |  | 
O=C(CCN1CC2CCC(CC2)C1)c1cccs1 | 34.7 µM | 35 µM | 27.7 µM | 31.8 µM | 39.2 µM | 31.1 µM | > 100 | 42.4 µM | 23.3 µM | 44.3 µM |  |  |  |  |  |  |  |  | 
O=[n+]1c2c(n([O-])c3ccccc31)-c1cccc3cccc-2c13 | > 100 µM | 94.7 µM | > 100 µM | > 100 µM |  | > 100 µM | > 100 | > 100 µM | > 100 µM | > 100 µM |  |  |  |  |  |  |  |  | 
O=C1c2cc3c(cc2-c2c1c1ccc(Cl)cc1c(=O)n2C[C@H](O)[C@@H](O)[C@H](O)CO)OCO3 | 0.895 µM |  | 0.103 µM | 10.1 µM | 0.0602 µM | > 100 µM |  | > 100 µM | 1.58 µM | > 100 µM | 0.08 µM |  | 0.0145 µM | 0.0292 µM | 0.016 µM | 0.128 µM | 0.0633 µM | 0.271 µM | 0.0155 µM
CC1(C)CC(=O)C2=C(C1)NC(SSC1=C(C#N)C(c3ccc(F)cc3)C3=C(CC(C)(C)CC3=O)N1)=C(C#N)C2c1ccc(F)cc1 (configuration not stated) | 55.8 µg/mL | > 150 µg/mL | 63.3 µg/mL | 49.5 µg/mL | 43.5 µg/mL | 48 µg/mL |  | 49.9 µg/mL | 46 µg/mL | 58.4 µg/mL | 29.1 µg/mL | 41.3 µg/mL | 30.5 µg/mL | 22.6 µg/mL | 23.4 µg/mL | 27.1 µg/mL | 28.8 µg/mL | 23.6 µg/mL | 29.3 µg/mL
